Where two headings read alike, the source gives them in different places. Some results are limits rather than exact numbers.

Common to all, as to format: cell-based, human
One assay has as its system complement C5 protein. Nature of the assay: Secreted complement protein ELISA, HepG2 cells. The settings on record: HepG2, 72 h, ± standard deviation. As for the experimental part: (§1) In this example, protein secretion from cells grown in culture in the presence of compound of interest was analyzed by enzyme linked immunosorbent assay (ELISA). In some cases, cultured cells were treated with cytokines and the compound of interest to mimic an inflammatory state. The method can be used to determine the effect of compounds, including those in the present invention, on the secretion of specific proteins from cells grown in culture under basal and cytokine stimulated (i.e. inflammatory) conditions (Table 7, FIGS. 5 and 6).
(§2) Huh-7 cells (JCRB Cell Bank) were introduced to 24-well plates in 500 μL DMEM supplemented with 10% (v/v) FBS, 100 U/mL penicillin, 100 ug/mL streptomycin and 5 ug/mL plasmocin (all reagents from Gibco, except for the former, which comes from Invivogen) at 200 000 cells/well. After 24 h, cells were treated with the compound of interest and/or cytokines in DMEM with 10% FBS containing 0.1% DMSO for a total treatment time of 72 h. Fresh media containing compounds and/or cytokines was introduced in the final 24 h of the experiment. At harvest, media were collected, debris was removed by brief centrifugation, and ELISA assays for the indicated proteins were performed as per the manufacturer's protocol. To correct for differences in cell numbers, values obtained for complement proteins were normalized to values for transferrin. HepG2 cells (ATCC) were cultured in MEM containing 10% FBS, 1× non-essential amino acids, 1 mM sodium pyruvate, 2 mM L-glutamine, 100 U/mL penicillin, 100 ug/mL streptomycin and 5 ug/mL plasmocin. Serum amount was reduced to 0.5% when compounds were present. Treatment combinations and timing were as described above for Huh-7 cells. Primary human hepatocytes (CellzDirect/Life Technologies) were plated in collagen coated 96-well plates at 70 000 cells/well, then overlaid with Matrigel™ as recommended by the supplier. Cells were treated with compounds of interest with or without the indicated cytokines for a total of 72 h in the recommended media supplemented with 10% FBS and 0.1% DMSO (v/v). Media were collected for measurements of secreted proteins.
(§3) The ELISA kits for detection of complement C3, C4, C5 and C9 were obtained from AssayPro (St. Charles, Mo.), while the ELISA reagents for transferrin detection were from Bethyl Laboratories (Montgomery, Tex.). Data were collected on a Thermo Scientific Multiskan GO apparatus. Downregulation of expression of components of the complement cascade will result in reduced activity of the pathway and thus will constitute a positive result.

The next assay has as its system complement C4 protein. Description: Secreted complement protein ELISA, HepG2 cells. As to conditions: HepG2, 72 h, ± standard deviation. As for the experimental part: as §1, §2, §3
The test system of assay [1] is C5 mRNA. Description: Complement gene mRNA expression, TaqMan real-time PCR, HepG2 cells. The settings on record: for IC50: Homo sapiens, HepG2, 72 h, read-out: C5 (72 h) mRNA, half maximal inhibitory concentration (IC50). An excerpt: (§4) In this example, mRNA levels from cultured cells were quantitated. The assay can be used to determine the effect of compound(s) on regulating mRNA levels, including those compounds in the present invention. Complement genes are expressed at high endogenous levels, but their expression can also be stimulated with various cytokines in inflammatory conditions. Experiments in this example target both basal and inflammatory complement gene expression. Compound mediated changes in gene expression and resulting mRNA levels are presented in Tables 2, 3 and 4 as well as FIGS. 1, 2, 3 and 4 below.
(§5) Huh-7 and HepG2 cells are liver-derived cell lines and are models for what can occur in the liver. Huh-7 cells (JCRB Cell Bank) were introduced to 96-well plates (^˜2.5×10^5 per well) in 100 μL DMEM containing 10% (v/v) FBS, 100 U/mL penicillin, 100 ug/mL streptomycin and 5 ug/mL plasmocin (all reagents from Gibco, except for the former, which was obtained from Invivogen). After 24 h, Huh-7 cells were treated with compounds in the same media formulation used for plating, and supplemented with 0.1% DMSO for the amount of time indicated in tables 2, 3, and 4. For select experiments, 24 h post-plating, cells were treated with cytokines and the compound of interest simultaneously, for a total treatment time of 48 h. Alternatively, 24 h after plating, cells were pre-treated with cytokines for 24 h before adding the compound of interest for 48 h. HepG2 cells (ATCC) were cultured in 96-well plates (^˜2.5×10^5 per well) in MEM containing 10% FBS, 1× non-essential amino acids, 1 mM sodium pyruvate, 2 mM L-glutamine, 100 U/mL penicillin, 100 ug/mL streptomycin and 5 ug/mL plasmocin. Serum amount was reduced to 0.5% for treatments with compound or cytokines. Timing of treatment of HepG2 cells with compounds and cytokines was as described for Huh-7 cells. Primary human hepatocytes (CellzDirect/Life Technologies) were plated in collagen coated 96-well plates at 70 000 cells/well, then overlaid with Matrigel™ as recommended by the supplier. Cells were treated with compounds of interest and/or cytokines for the indicated time points in the recommended media supplemented with 0.1% DMSO and 10% FBS (v/v). Cells were harvested by mRNA Catcher PLUS Kit (Life Technologies) followed by real-time PCR using the RNA UltraSense One-Step qRT-PCR System. The level of the mRNA of interest was measured by TaqMan real-time PCR relative to the endogenous control cyclophilin A in the same sample. Data were acquired using the ViiA-7 Real Time PCR System (Applied Biosystems).
(§6) Downregulation of expression of components of the complement cascade will result in reduced activity of the pathway and thus will constitute a positive result. Tables 2 and 3 list the concentration of compounds at which the level of the indicated mRNA is reduced by 50%, as well as the duration of treatment with compound. Table 4 lists the maximum reduction in the indicated mRNA measured in primary human hepatocytes treated with compounds for up to 72 hours. FIGS. 1, 2, 3 and 4 show effects of compounds on cytokine-induced (i.e. inflammatory) expression of complement genes in Huh-7 cells and HepG2 cells.

Assay [2] deals with C3 mRNA. The description is as above. The settings on record: for IC50: Homo sapiens.
Text: as §4, §5, §6

The subject of assay [3] is C5 mRNA. Nature of the assay: Complement gene mRNA expression, TaqMan real-time PCR, Huh-7 cells. The settings on record: for IC50: Homo sapiens.
Text: as §4, §5, §6

For a further assay, the system named is C4a/C4b mRNA. Described as above. The settings on record: for IC50: Homo sapiens.
Text: as §4, §5, §6

The subject of assay [4] is C3 mRNA. The assay is described as above. As to conditions: for IC50: Homo sapiens.
Text: as §4, §5, §6

Setting [5] is: HepG2 pre-treated with cytokines.
Where [6] appears, read: HepG2 treated simultaneously with cytokines.
[7] abbreviates: HepG2, 72 h, read-out: C3 (72 h) mRNA, half maximal inhibitory concentration (IC50).
The mark [8] stands for this setting: read-out: C5 (72 h) mRNA, half maximal inhibitory concentration (IC50), Huh-7, 72 h treatment.
Setting [9] is: Huh-7 pre-treated with cytokines.
[10] abbreviates: Huh-7 treated simultaneously with cytokines.
Where [11] appears, read: read-out: C4a/C4b (72 h) mRNA, half maximal inhibitory concentration (IC50), Huh-7, 72 h treatment.
The mark [12] stands for this setting: Huh-7, 48 h treatment, read-out: C3 (48 h) mRNA, half maximal inhibitory concentration (IC50).

`COc1cc(OC)c2c(=O)[nH]c(-c3cc(C)c(OCCO)c(C)c3)nc2c1` [RVX000222, 2-(4-(2-hydroxyethoxy)-3,5-dimethylphenyl)-5,7-dimethoxyquinazolin-4(3H)-one]: the “C5 secretion, percent maximum reduction in protein levels” value with complement C5 protein (30 uM) came to 77 ± 4%. In addition, the “C4 secretion, percent maximum reduction in protein levels” value with complement C4 protein (30 uM) turned out to be 65 ± 5%. Besides, in the assay with C5 mRNA [1] (setting [5]), the “expression of complement component 5 at the mRNA level (FIG. 4)” value is listed as “reduces expression”. For the same compound, the “expression of complement component 5 at the mRNA level (FIG. 2)” value in the assay on C5 mRNA [1] (setting [6]) is recorded as “reduces expression”. Further, the IC50 in the assay on C5 mRNA [1] was 20000 nM; in the assay on C3 mRNA [2] (setting [7]) it was 25000 nM; in the assay with C5 mRNA [3] (setting [8]), 21800 nM; with C5 mRNA [3] (Huh-7, 48 h treatment, read-out: C5 (48 h) mRNA, half maximal inhibitory concentration (IC50)) it was more than 30000 nM; in the assay on C4a/C4b mRNA (setting [11]), 5.4 µM; in the assay on C4a/C4b mRNA (Huh-7, 48 h treatment, read-out: C4a/C4b (48 h) mRNA, half maximal inhibitory concentration (IC50)) it was 6.3 µM. Moreover, the IC50 with C3 mRNA [4] (setting [12]) was 1.9 µM. For the same compound, the “expression of complement component 3 at the mRNA level (FIG. 4)” value with C3 mRNA [2] (setting [5]) is “reduces expression”. The “expression of complement component 3 at the mRNA level (FIG. 2)” value in the assay on C3 mRNA [2] (setting [6]) is reported as “reduces expression”. Moreover, in the assay with C5 mRNA [3] (setting [9]), the “expression of complement component 5 at the mRNA level (FIG. 3)” value is given as “reduces expression”. For the same compound, the “expression of complement component 5 at the mRNA level (FIG. 1)” value with C5 mRNA [3] (setting [10]) is “reduces expression”. Further, the “expression of complement component 4 at the mRNA level (FIG. 3)” value in the assay on C4a/C4b mRNA (setting [9]) is “reduces expression”. Further, in the assay on C4a/C4b mRNA (setting [10]), the “expression of complement component 4 at the mRNA level (FIG. 1)” value is “reduces expression”. Moreover, the “expression of complement component 3 at the mRNA level (FIG. 3)” value in the assay with C3 mRNA [4] (setting [9]) is on record as “reduces expression”. For the same compound, the “expression of complement component 3 at the mRNA level (FIG. 1)” value with C3 mRNA [4] (setting [10]) is reported as “reduces expression”.
Regarding `Cc1sc2c(c1C)C(c1ccc(Cl)cc1)=N[C@@H](CC(=O)OC(C)(C)C)c1nnc(C)n1-2` [JQ1, (S)-tert-butyl 2-(4-(4-chlorophenyl)-2,3,9-trimethyl-6H-thieno[3,2-f][1,2,4]triazolo[4,3-a][1,4]diazepin-6-yl)acetate, reference compound], in the assay on complement C5 protein (0.75 uM), the “C5 secretion, percent maximum reduction in protein levels” value is given as 82 ± 7%. Besides, the “C4 secretion, percent maximum reduction in protein levels” value in the assay with complement C4 protein (0.75 uM) is 81 ± 9%. In addition, the IC50 with C5 mRNA [1] was 460 nM; in the assay on C3 mRNA [2] (HepG2, 48 h, read-out: C3 (48 h) mRNA, half maximal inhibitory concentration (IC50)), 200 nM; in the assay on C3 mRNA [2] (setting [7]) it was 490 nM; with C5 mRNA [3] (setting [8]) it was 270 nM; with C4a/C4b mRNA (setting [11]), 0.07 µM; in the assay with C4a/C4b mRNA (Huh-7, 48 h treatment (Table 3), read-out: mRNA expression in Huh-7 cells: IC50 (uM), C4) it was 0.065 µM. Moreover, the IC50 with C3 mRNA [4] (Huh-7, 48 h treatment (Table 3), read-out: mRNA expression in Huh-7 cells: IC50 (uM), C3) was found to be 0.18 µM; in the assay on C3 mRNA [4] (setting [12]) it was 0.2 µM.

For the origin of these results see patent US10111885B2, “Compositions and therapeutic methods for the treatment of complement-associated diseases” (Resverlogix Corp., priority 2015, dated 2018).
